One data set has as its system Proteus vulgaris. Nature of the data set: Minimal inhibitory concentration, Proteus vulgaris. Format: cell-based. Conditions: ATCC13315; Proteus vulgaris ATCC 13315; 1/2×TSB, 37° C., 18 to 24 hours. The procedure:
(§1) Squalamine was assayed in vitro against several microbial organisms to evaluate its spectrum of activity.
(§2) Minimal inhibitory concentrations for the bacteria and yeast were determined by incubating 0.9-11×10^5 colony-forming units/ml of log-phase organisms in 1/2×tryptica soy broth (TSB) with increasing concentrations of sample in static 96-2311 microtiter plates (Corning, Inc., Corning, N.Y.) at 37° C. for 18 to 24 hours. The minimal inhibitory concentration is the concentration of sample at which no growth was observed. Control incubation in the absence of […] served to set a baseline value.
(§3) Initial sample concentrations were 2 mg/ml in 250 mM sodium acetate pH 6.6, 11.2 mM HCl, except taurolithocholic acid 3-sulfate which was 2 mg/ml in 50 mM sodium acetate, and squalamine to which HCl was not added because it was acidic following the last step of purification. Spermidine HCl, taurolithocholic acid 3-sulfate, melittin, holothurin and ampicillin were purchased from Sigma (St. Louis, Miss.). CHAPS (3-[(3-cholamidopropyl)dimethylammonio]-1-propane sulfonate dihydrate) was purchased from Aldrich (Milwaukee, Wis.). Conessine was purchased from Aldrich Rare Chemicals Division (Milwaukee, Wis.). Magainin-II amide and CPF-amide were made by Magainin Pharmaceuticals, Inc. (Plymouth Meeting, Penn.). The CPF peptide used in the assay has the sequence […]-NH2. (Richter, K., et al., J. Biol. Chem. 261, 3676-3680 (1986).

The subject of the next data set is Candida albicans. Nature of the data set: Minimal inhibitory concentration, Candida albicans. Format: cell-based. Conditions: ATCC14053; Candida albicans ATCC 14053; 1/2×TSB, 37° C., 18 to 24 hours. The protocol:
as §1, §2, §3

Data set [1] in a line: Tissue distribution of squalamine in Squalus acanthias. The protocol: The tissue distribution of squalamine was determined by extraction of freshly obtained tissues of Squalus using the same procedure as described in Example 1 for the stomach extraction. Other Squalus acanthias tissues (about 50 g of liver, gallbladder, spleen, testes, gill and intestine) were extracted as above, and purified through the C18 HPLC stage. Antimicrobial activity was detected in each tissue, and one reversed-phasefraction from each tissue was analyzed by FAB mass spectroscopy. The yield from the stomach was determined by spotting several dilutions onto a TLC plate and comparing the ninhydrin staining to a spermidine standard curve. The result agreed with the estimate obtained by NMR spectroscopy when the squalamine signal intensity was compared to that of a standard. An estimate of the yield of squalamine from other tissues was made by comparing the antimicrobial activity of reversed-phase fractions to the activity from the stomach.

The test system of another data set is E. coli. Description: Minimal inhibitory concentration, E. coli. The data set is classed as cell-based. Conditions: Escherichia coli, ATCC25922; E. coli ATCC 25922; 1/2×TSB, 37° C., 18 to 24 hours. The procedure:
as §1, §2, §3

The next data set deals with Pseudomonas aeruginosa. Description: Minimal inhibitory concentration, Pseudomonas aeruginosa. Format: cell-based. Conditions: ATCC27853; Pseudomonas aeruginosa ATCC 27853; 1/2×TSB, 37° C., 18 to 24 hours. The procedure:
as §1, §2, §3

Another data set concerns Strep. faecalis. Nature of the data set: Minimal inhibitory concentration, Strep. faecalis. Format: cell-based. Conditions: Enterococcus faecalis, ATCC29212; Strep. faecalis ATCC 29212; 1/2×TSB, 37° C., 18 to 24 hours. The protocol:
as §1, §2, §3

For data set [2], the system named is E. coli D31. Description: Protease resistance of antimicrobial activity (proteinase K). Format: in vitro ADME. Conditions: proteinase K 2 mg/ml, one hour, 37° C.; E. coli D31 lawn. The procedure:
Proteinase K (final concentration 2 mg/ml) was added to 0.2 μg/μl squalamine or 0.8 μg/μl magainin II amide in 1×phosphate-buffered saline. After a one hour incubation at 37° C., 2 μl of each sample was applied to the lawn of E. coli D31.

In another data set the test system is Staph. aureus. Description: Minimal inhibitory concentration, Staph. aureus. Conditions: Staphylococcus aureus, ATCC29213; Staph. aureus ATCC 29213; 1/2×TSB, 37° C., 18 to 24 hours. Format: cell-based. The protocol:
as §1, §2, §3

In data set [3] the test system is E. coli D31. Description: Heat resistance of antimicrobial activity (boiling). Format: physicochemical. Conditions: 0.2 μg/ml in 1×phosphate buffered saline, boiled fifteen minutes, E. coli D31 lawn. The protocol:
Squalamine at 0.2 μg/ml in 1×phosphate buffered saline was boiled for fifteen minutes. A 2 μl aliquot of the sample before and after boiling was applied to a lawn of E. coli D31.

The test system of a further data set is human erythrocytes. Description: Hemolytic activity against human erythrocytes. The data set is classed as cell-based. The protocol: Because of its structural resemblance to steroidal detergents, squalamine was assayed for its hemolytic activity against human erythrocytes.
Each sample was diluted in H2 O and was added to a 10% (vol/vol) suspension of human erythrocytes in phosphate buffered saline (PBS). Erythrocytes were collected with heparin and washed once in 1×PBS before the assay. Samples were incubated at 37° C. for ten minutes, centrifuged at 12,000× g for one minute, and the OD350 of the supernatant was measured. Addition of Triton X-100 (final concentration 0.1%) defined 100% hemolysis.

Data set [4] relates to several microbial organisms. Description: In vitro antimicrobial spectrum (bacteria, fungi, protozoa), in words. Format: cell-based. The procedure: as §1, §2, §3
(§4) Minimal disruptive concentration (the concentration at which physical disruption of the protozoa occurred) was determined for the protozoa by adding […] of sample (in sodium acetate as above) to […] of 1% trypticase soy broth containing P. caudatum (Nasco, Fort Atkinson, Wiss,). Organisms were observed by light microscopy for ten minutes.

A further data set deals with Paramecium caudatum. Description: Minimal disruptive concentration, Paramecium caudatum. The data set is classed as cell-based. Conditions: 1% trypticase soy broth, light microscopy for ten minutes, read-out: Minimal Inhibitory Concentration (minimal disruptive concentration for the protozoa). The protocol: as §1, §3, §4
The next data set relates to Serratia marcescens. Description: Minimal inhibitory concentration, Serratia marcescens. Conditions: ATCC8100; Serratia marcescens ATCC 8100; 1/2×TSB, 37° C., 18 to 24 hours. Format: cell-based. The procedure:
as §1, §2, §3

Values after ≈ are worked out from the molar mass of the structure shown. “Also recorded” adds a separate entry of the source. Where only a bound is given, the exact number is not on record here.

Take `CC(C)C(CC[C@@H](C)[C@H]1CC[C@H]2[C@@H]3[C@H](O)C[C@H]4C[C@@H](NCCCNCCCCN)CC[C@]4(C)[C@H]3CC[C@]12C)OS(=O)(=O)O` (stereo partly drawn) [Squalamine, 3β(N-[3-aminopropyl]-1,4-butanediamine)-7α,24.zeta.-dihydroxy-5α-cholestane 24-sulfate]: the MIC against Proteus vulgaris lay in the range of 4 to 8 µg/mL (≈ 6.37 to 12.7 µM); with Candida albicans, 4 to 8 µg/mL (≈ 6.37 to 12.7 µM); in the data set with E. coli, 1 to 2 µg/mL (≈ 1.59 to 3.18 µM); in the data set with Pseudomonas aeruginosa, 4 to 8 µg/mL (≈ 6.37 to 12.7 µM); against Strep. faecalis it was 1 to 2 µg/mL (≈ 1.59 to 3.18 µM); against Staph. aureus, 1 to 2 µg/mL (≈ 1.59 to 3.18 µM). For the same molecule, the MIC was 4 to 8 µg/mL (≈ 6.37 to 12.7 µM) with Paramecium caudatum and more than 125 µg/mL in the data set with Serratia marcescens. Moreover, the “squalamine content of tissue” value in data set [1] (gills) is listed as 0.5 μg/gm; in data set [1] (intestine) it was 0.02 μg/gm; in data set [1] (liver and gall bladder), 4-7 μg/gm; in data set [1] (spleen), “about 2 μg/gm”; in [1] (stomach) it was 1 μg/gm; in data set [1] (testes), “about 2 μg/gm”. Further, in the data set with E. coli D31 [2], the “antimicrobial activity after proteinase K digestion” value was “retained its activity; also recorded: resistant to boiling and protease treatment”. Besides, the “antimicrobial activity after boiling” value with E. coli D31 [3] was “retained its antimicrobial activity after boiling”; in the data set with E. coli D31 [3] (listed as squalamine) it was “resistant to boiling and protease treatment”. Also, the “hemolytic activity (in words)” value in the data set with human erythrocytes (FIG. 3, 37° C., ten minutes) was “exhibits some hemolytic activity, it occurs at higher concentrations than observed for a non-selective membrane disruptive amphipathic peptide, such as mellitin”. Further, the “antibiotic versus hemolytic concentration / selectivity (in words)” value with human erythrocytes (antibiotic activity compared with erythrocyte disruption) is reported as “exerts antibiotic activity at concentrations below which erythrocyte disruption is observed”. The “antibacterial activity (in words)” value in data set [4] (bacteria of Table I) is reported as “compares in antibacterial potency to ampicillin”. Further, the “antibiotic activity (in words)” value in data set [4] (bacteria, fungi, protozoa, concentration range studied) was “broad range of potent antibiotic activity against a plurality of microorganisms including gram-positive and gram-negative bacteria, fungi, protozoa and the like; also recorded: somewhat more potent than the Xenopus antimicrobial peptides”.
